Experimental data: PubChem BioAssay (NCI)
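Interpolation was linear, between the two tested concentrations surrounding the appropriate level; five concentrations were tested over 48 hours in 96-well plates. At the TGI there is no net growth.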

Key:
Experiment in all cases: growth of human tumour cells (NCI), 48 h
MDA-MB-435 = test system: MDA-MB-435
OVCAR-4 ovarian = test system: OVCAR-4 ovarian
MDA-MB-231 breast = test system: MDA-MB-231 breast
HCC-2998 colon = test system: HCC-2998 colon
SW-620 colon = test system: SW-620 colon
PC-3 prostate = test system: PC-3 prostate
SNB-75 CNS = test system: SNB-75 CNS
HOP-92 NSCLC = test system: HOP-92 NSCLC
UACC-257 melanoma = test system: UACC-257 melanoma
SK-MEL-28 melanoma = test system: SK-MEL-28 melanoma
NCI-H226 lung = test system: NCI-H226 lung

| SMILES | TGI (MDA-MB-435) [µM] | TGI (OVCAR-4 ovarian) [µM] | TGI (MDA-MB-231 breast) [µM] | TGI (HCC-2998 colon) [µM] | TGI (SW-620 colon) [µM] | TGI (PC-3 prostate) [µM] | TGI (SNB-75 CNS) [µM] | TGI (HOP-92 NSCLC) [µM] | TGI (UACC-257 melanoma) [µM] | TGI (SK-MEL-28 melanoma) [µM] | TGI (NCI-H226 lung) [µM] |
| --- | --- | --- | --- | --- | --- | --- | --- | --- | --- | --- | --- |
| CN(C(=O)Cc1ccccc1)n1cnn(CC(=O)OC(C)(C)C)c1=S | > 10 | > 10 | > 10 | > 10 | > 10 | > 10 | > 10 | > 10 | > 10 | > 10 | – |
| CCC1(N=[N+]=[N-])C(=O)c2ccccc2N(C)C1=O (stereo unspecified) | – | > 100 | – | > 100 | > 100 | – | > 100 | > 100 | > 100 | > 100 | – |
| Cc1ccc(SC2C(=O)C3CC(OCc4ccccc4)C2(C)C3(C)C)cc1 (stereo unspecified) | > 100 | – | > 100 | > 100 | > 100 | > 100 | – | > 100 | – | > 100 | > 100 |
| COc1cc2c(cc1OC)C(=O)N(c1ccc(O)cc1)C2=O | > 100 | > 100 | > 100 | > 100 | > 100 | > 100 | – | > 100 | > 100 | > 100 | > 100 |
| COC(=O)C1Cc2cc3c(cc2C1=O)CCCC3 (stereo unspecified) | > 100 | > 100 | > 100 | > 100 | > 100 | > 100 | > 100 | – | > 100 | > 100 | 87 |
| Cc1nc(CC#N)n[nH]1 | > 100 | > 100 | > 100 | > 100 | > 100 | > 100 | > 100 | > 100 | > 100 | – | – |
| C#C/C=C\CCCC/C=C\C#CC#CCCCC#CC#C[C@H](COS(=O)(=O)O)OS(=O)(=O)O | > 100 | > 100 | > 100 | > 100 | > 100 | > 100 | > 100 | > 100 | > 100 | > 100 | – |
| COc1ccc(C(=O)O[C@H]2[C@@H]3C=CO[C@@H](OC4OC(CO)C(O)C(O)C4O)[C@@H]3[C@@]3(CO)O[C@@H]23)cc1O (stereo partly specified) | – | > 100 | – | > 100 | > 100 | – | > 100 | > 100 | > 100 | > 100 | – |
| CCN(CC)CCCNc1ccc2nc(C)n3c4ccc(O)cc4c(=O)c1c23 | 22 | 20.1 | – | 22.6 | 14.9 | 12.6 | 7.69 | 11.4 | 29 | 26.6 | 21.4 |
| O=C(OC1C2OC(=O)c3cc(O)c(O)c(O)c3Oc3cc4c(c(O)c3O)-c3c(cc(O)c(O)c3O)C(=O)OCC3OC(O)C(OC(=O)c5cc(O)c(O)c(O)c5Oc5cc6c(c(O)c5O)-c5c(cc(O)c(O)c5O)C(=O)OC1C(COC6=O)OC2O)C(OC(=O)c1cc(O)c(O)c(O)c1)C3OC4=O)c1cc(O)c(O)c(O)c1 (stereo unspecified) | 42.6 | 47.8 | 68.4 | – | 40.5 | 87.7 | – | 58.5 | > 100 | > 100 | > 100 |
| COc1ccc(C(c2c(O)c3ccccc3n(-c3ccccc3)c2=O)c2c(O)c3ccccc3n(-c3ccccc3)c2=O)cc1 | – | > 100 | – | > 100 | > 100 | – | – | > 100 | – | > 100 | > 100 |
